Measured values reported in paper PMC9945734 (BMC Medicine, 2023).

Tested on: PC-3-KQ and PC-3-KR cells
Test: RNA-sequencing and differential gene expression
Assay type: cell-based, human
Conditions: RNA-Seq, PC-3-KQ cells

Compound: CC(=O)Oc1ccccc1C(=O)Nc1ncc([N+](=O)[O-])s1 [Nitazoxanide]
- IL21R Change (KQ-Control vs KQ-NTZ): DOWN
- IL21R logFC (KQ-Control vs KQ-NTZ): -0.8899
- INHBA Change (KQ-Control vs KQ-NTZ): DOWN
- INHBA logFC (KQ-Control vs KQ-NTZ): -0.6293
- INHBB Change (KQ-Control vs KQ-NTZ): DOWN
- INHBB logFC (KQ-Control vs KQ-NTZ): -0.6733
- KIAA1755 Change (KQ-Control vs KQ-NTZ): DOWN
- KIAA1755 logFC (KQ-Control vs KQ-NTZ): -0.9388
- KLK9 Change (KQ-Control vs KQ-NTZ): DOWN
- KLK9 logFC (KQ-Control vs KQ-NTZ): -1.8809
- LGALS12 Change (KQ-Control vs KQ-NTZ): DOWN
- LGALS12 logFC (KQ-Control vs KQ-NTZ): -2.2497
- LILRB3 Change (KQ-Control vs KQ-NTZ): DOWN
- LILRB3 logFC (KQ-Control vs KQ-NTZ): -0.8729
- LOC105373989 Change (KQ-Control vs KQ-NTZ): DOWN
- LOC105373989 logFC (KQ-Control vs KQ-NTZ): -0.7405
- LOC105377805 Change (KQ-Control vs KQ-NTZ): DOWN
- LOC105377805 logFC (KQ-Control vs KQ-NTZ): -0.9959
- LOC107987158 Change (KQ-Control vs KQ-NTZ): DOWN
- LOC107987158 logFC (KQ-Control vs KQ-NTZ): -1.1348
- LONRF2 Change (KQ-Control vs KQ-NTZ): DOWN
- LONRF2 logFC (KQ-Control vs KQ-NTZ): -0.9823
- LTB Change (KQ-Control vs KQ-NTZ): DOWN
- LTB logFC (KQ-Control vs KQ-NTZ): -0.7686
- LY6K Change (KQ-Control vs KQ-NTZ): DOWN
- LY6K logFC (KQ-Control vs KQ-NTZ): -0.6327
- MAP7D3 Change (KQ-Control vs KQ-NTZ): DOWN
- MAP7D3 logFC (KQ-Control vs KQ-NTZ): -0.8315
- MCM4 Change (KQ-Control vs KQ-NTZ): DOWN
- MCM4 logFC (KQ-Control vs KQ-NTZ): -0.8431
- MEOX1 Change (KQ-Control vs KQ-NTZ): DOWN
- MEOX1 logFC (KQ-Control vs KQ-NTZ): -0.6507
- MMP9 Change (KQ-Control vs KQ-NTZ): DOWN
- MMP9 logFC (KQ-Control vs KQ-NTZ): -0.7252
- MNX1 Change (KQ-Control vs KQ-NTZ): DOWN
- MNX1 logFC (KQ-Control vs KQ-NTZ): -0.604
- MSMP Change (KQ-Control vs KQ-NTZ): DOWN
- MSMP logFC (KQ-Control vs KQ-NTZ): -1.1495
- MYBL2 Change (KQ-Control vs KQ-NTZ): DOWN
- MYBL2 logFC (KQ-Control vs KQ-NTZ): -0.7249
- MYH7B Change (KQ-Control vs KQ-NTZ): DOWN
- MYH7B logFC (KQ-Control vs KQ-NTZ): -0.9453
- NKD1 Change (KQ-Control vs KQ-NTZ): DOWN
- NKD1 logFC (KQ-Control vs KQ-NTZ): -0.7476
- NRK Change (KQ-Control vs KQ-NTZ): DOWN
- NRK logFC (KQ-Control vs KQ-NTZ): -1.1538
- NTF4 Change (KQ-Control vs KQ-NTZ): DOWN
- NTF4 logFC (KQ-Control vs KQ-NTZ): -0.9396
- PADI3 Change (KQ-Control vs KQ-NTZ): DOWN
- PADI3 logFC (KQ-Control vs KQ-NTZ): -0.9445
- PCDH18 Change (KQ-Control vs KQ-NTZ): DOWN
- PCDH18 logFC (KQ-Control vs KQ-NTZ): -1.1702
- PEG10 Change (KQ-Control vs KQ-NTZ): DOWN
- PEG10 logFC (KQ-Control vs KQ-NTZ): -0.7533
- PFKFB1 Change (KQ-Control vs KQ-NTZ): DOWN
- PFKFB1 logFC (KQ-Control vs KQ-NTZ): -0.9123
- PGAM4 Change (KQ-Control vs KQ-NTZ): DOWN
- PGAM4 logFC (KQ-Control vs KQ-NTZ): -0.6254
- PHACTR3 Change (KQ-Control vs KQ-NTZ): DOWN
- PHACTR3 logFC (KQ-Control vs KQ-NTZ): -1.8948
- PHOSPHO2 Change (KQ-Control vs KQ-NTZ): DOWN
- PHOSPHO2 logFC (KQ-Control vs KQ-NTZ): -0.6401
- PIANP Change (KQ-Control vs KQ-NTZ): DOWN
- PIANP logFC (KQ-Control vs KQ-NTZ): -1.6896
- PRKDC Change (KQ-Control vs KQ-NTZ): DOWN
- PRKDC logFC (KQ-Control vs KQ-NTZ): -0.6126
- PRR16 Change (KQ-Control vs KQ-NTZ): DOWN
- PRR16 logFC (KQ-Control vs KQ-NTZ): -0.5996
- PRR29 Change (KQ-Control vs KQ-NTZ): DOWN
- PRR29 logFC (KQ-Control vs KQ-NTZ): -0.8108
- PRRT4 Change (KQ-Control vs KQ-NTZ): DOWN
- PRRT4 logFC (KQ-Control vs KQ-NTZ): -0.6032
- RBL1 Change (KQ-Control vs KQ-NTZ): DOWN
- RBL1 logFC (KQ-Control vs KQ-NTZ): -0.6965
- RPP25 Change (KQ-Control vs KQ-NTZ): DOWN
- RPP25 logFC (KQ-Control vs KQ-NTZ): -0.6095
- SCG2 Change (KQ-Control vs KQ-NTZ): DOWN
- SCG2 logFC (KQ-Control vs KQ-NTZ): -0.6461
- SERPINA3 Change (KQ-Control vs KQ-NTZ): DOWN
- SERPINA3 logFC (KQ-Control vs KQ-NTZ): -0.7667
